Measurements published in PMC4595834, “Comparison of carbon-sulfur and carbon-amine bond in therapeutic drug: 4β-S-aromatic heterocyclic podophyllum derivatives display antitumor activity” (Scientific Reports, 2015).

How the values were obtained:
HeLa cells [1] = assay: MTT cytotoxicity assay, HeLa; assay type: cell-based, human; details: for IC50 fold difference vs the corresponding C-NH compound (1N or 1′N): HeLa cells; for IC50: Homo sapiens, HeLa, MTT, drug exposure 48 h, mean ± SD (n = 3), read-out: Cytotoxic activity (IC50) HeLa
Description: (§1) Cytotoxicity of the podophyllum derivatives were determined by reading the absorbance at 492 nm on a multiplate reader (Thermo Fisher Scientific, Multiskan MK3). Cell cycle analysis and apoptosis analysis were analyzed by flow cytometry (Accuri C6, BD). Immunofluorescence images were recorded using laser scanning microscope (Perkin-Elmer & Olympus, UltraView VoX & Ix81). The gel for the decatenation of kDNA by Topoisomerase II study was photographed with UV illumination, Tanon 1600 (Tanon Science & Technology Co., Ltd., Shanghai). The nitrocellulose blotting membrane for western blot analysis was visualized using X-ray film processor and X-ray film, Fujifilm SUPER RX-N-C.
(§2) Cytotoxicity assay was performed on human lung adenocarcinoma epithelial cell line (A549), henrietta lacks strain of cancer cells (HeLa), human gastric carcinoma cell line (BGC 823), and normal human hepatocyte cell line (HL-7702). Cells (3500–13,000) in a 100 μL culture medium per well were seeded into 96-well microtest plates (Falcon, CA). A549 cell lines, HeLa cell lines and HL-7702 cell lines were cultured in DMEM supplemented with 10% CS, 100 mg/L penicillin G, 100 mg/L streptomycin. BGC 823 cell lines were cultured in RPMI medium 1640 supplemented with 10% CS, 100 mg/L penicillin G, and 100 mg/L streptomycin. The cells were incubated at 37 °C, in a humidified atmosphere with 5% CO2 for 48 h. For all cell lines, the microculture tetrazolium [3-(4, 5-dimethylthiazol-2-yl)-2, 5-diphenyltetrazolium bromide, MTT; Sigma, St. Louis, MO] assay was performed to measure the cytotoxic effects. Drug stock solutions (the each drug concentration was 0.5, 1, 10, 20, 50, 100, 200, and 500 μM, respectively) were prepared in DMSO and the final solvent concentration was ≤ 2% DMSO (v/v), a concentration without effect on cell replication. Initial seeding densities varied among the cell lines to ensure a final absorbance reading in control (untreated) cultures in the range 0.6–0.8 A492 units. Drug exposure was for 2 days, and the IC50 value, the drug concentration that reduced the absorbance by 50%, was interpolated from dose-response data. Each test was performed in triplicate, and absorbance readings varied no more than 5%. Data presented as means ± standard deviation (SD). Statistical analyses were performed by the analysis of variance (ANOVA). All statistical analyses were performed using Origin version 8.0 ([…], OriginLab Corp., Northampton, MA, USA). Sigmoidal dose responses and non-linear regression analyses were undertaken to identify half-maximal concentrations for each of the drugs. To evaluate differences in IC50 concentrations, analysis of variance combined with Tukey’s multiple range test was used.

BGC-823 cells = assay: MTT cytotoxicity assay, BGC-823; assay type: cell-based, human; details: for IC50: Homo sapiens, BGC-823, MTT, drug exposure 48 h, mean ± SD (n = 3), read-out: Cytotoxic activity (IC50) BGC-823
Description: as §1, §2

A549 cells = assay: MTT cytotoxicity assay, A549; assay type: cell-based, human; details: for IC50: Homo sapiens, A549, 48 h, MTT, drug exposure 48 h, mean ± SD (n = 3), read-out: Cytotoxic activity (IC50) A549
Description: as §1, §2

[2] = MTT cytotoxicity assay, normal hepatocyte HL-7702; assay type: cell-based; details: HL-7702 cells (normal hepatocyte cell line), normal human hepatocyte cell line, drug exposure 48 h, mean ± SD (n = 3), read-out: Cytotoxic activity (IC50) HL-7702
Description: as §1, §2

Topoisomerase II = target: T1, Topoisomerase II (Homo sapiens, UniProt P11388); assay: kDNA decatenation assay (Topoisomerase II inhibition); assay type: biochemical; details: 100 μM
T1 construct: purchased TopoGEN Inc., USA 2000H
Description: Kinetoplast DNA (kDNA) is a catenated network of mitochondrial DNA seen in trypanosomes.
Topoisomerase II activity was determined using kit (TopoGEN Inc., USA, Cat no. 2000H). […] Next, 4 U of topoisomerase II was added and the reaction was allowed to proceed for 60 min at 37 °C. The reaction was stopped by the addition of 1/10 volume of 1 mg/mL proteinase K and incubated for 15 min at 37 °C. The reaction was quenched via the addition of loading buffer (350 mM Tris, pH 6.8, 12% SDS, 0.012% bromophenol blue, 47% glycerol) and was then analyzed by electrophoresis on a 1% agarose gel in TBE buffer (89 mM Tris, 89 mM borate, and 2 mM Na-EDTA, pH 8.3) for 0.5 h at 140 V. The gel was visualized under UV illumination and photographed on an Alpha Imager.

HeLa cells [3] = assay: Western blot of apoptosis pathway proteins in HeLa cells; assay type: cell-based, human; details: 1 μM; for apoptotic pathways activated (BimEL, caspase-9, -8, -3, PARP): 12–48 h
Description: Cells were lysed by adding 100 μL of RIPA buffer (50 mM Tris, pH 8.0, 150 mM NaCl, 1% TX-100, 0.5% sodium deoxycholate, 0.1% SDS) with 1% Protease Inhibitor PMSF. Each sample was then vigorously vortexed twice for 15 seconds, with a 30-minute incubation on ice following each agitation. The cellular debris was pelleted (12,000 rpm, 10 min), and then 100 μL of the protein suspension was transferred to fresh 0.5 mL tubes. The protein levels were quantified using a standard BCA (Thermo Scientific), after which the samples were diluted with deionized water to achieve equal protein concentrations for all samples. Prior to analyzing the samples, 5 × Loading buffer (350 mM Tris, pH 6.8, 12% SDS, 0.012% bromophenol blue, 47% glycerol) with 5% β-mercaptoethanol was added to each sample to achieve a final 1 × concentration, after which the samples were incubated at 95 °C for 10 minutes to denature the protein samples. 20–30 μg of protein was added to and run on a 15-well 4–20% Tris-HCl gel. The gel was equilibrated buffer (39 mM glycine, 48 mM, 0.037 g/L SDS, 200 mL/L methanol) for 5 minutes, then the protein were transferred to a PVDF membrane, which was incubated with 5% fetal bovine serum in TBST (20 mM Tris-HCl, pH 8.0, 150 mM, 0.5 mL/L Tween-20) for 1 h to block non-specific binding, and then probed for the primary antibody at a 1:1000 dilution with a blocking agent in TBST for 1 h at room temperature. The blot was washed with TBST, and then probed with a secondary antibody in TBST for 1 hour at room temperature. The blot was washed with TBST, and then The ECL detection kit (Millipore) was added to catalyze oxidation of luminol to emit chemiluminescence, and the membrane was visualized using X-ray film processor and X-ray film (Fujifilm SUPER RX-N-C).

HeLa cells [4] = assay: Flow cytometry cell cycle analysis in HeLa cells; assay type: cell-based, human; details: for G2/M phase arrest: 0.1 μM; for percentage of G2/M phase cells: 1 μM; for percentage of G2/M phase cells / percentage of G2/M phase cells (maximum): 48 h; for percentage of G2/M phase cells (maximum): 5 μM
Description: (§3) For the cell cycle analysis, HeLa cells were treated with test compounds for 6, 12, 24 and 48 h at 37 °C in 6-well plates. Appropriate controls, in which cells were mock-treated by DMSO (<1%) for the same durations, were also set up. After being treated, all cells were trypsinized and collected, washed twice with PBS, added with 4 °C 70% ethanol (10 mL) and stored overnight at 4 °C. After this, cells were spun down at 1500 rpm for 5 min, washed once with PBS, and then treated with the mixture of 10 μL RNase (10 mg/mL), 50 μL propidium iodide (1 mg/mL) and 940 μL 1 × PBS, incubated at room temperature for 30 min in the dark. The stained cells were analyzed by flow cytometry. The result was analyzed with ModFit LT^TM 3.2 version software. For the apoptosis determination, after 6, 12, 24 and 48 h treatment with test compounds, HeLa cells were harvested, re-suspend in 500 μL annexin-binding buffer (10mM HEPES, 140 mM NaCl, 2.5 mM CaCl2, pH 7.4) at the cell density of about 10^6 cells/mL and stained with 5 μL annexin V and 5 μL propidium iodide for 15 min at room temperature. Changes in intracellular ROS levels were determined by measuring the oxidative conversion of cell permeable 2′,7′-dichlorofluorescein diacetate (DCFH-DA) to fluorescent di-chlorofluorescein (DCF) in flow cytometry (BD Accuri C6). Cells in 6-well culture dishes were incubated with DMEM for 6, 12, 24 and 48 h in the absence or presence of test compounds. The cells were washed with DMEM and incubated with DCFH-DA (10 μM) at 37 °C for 30 min. Then DCF fluorescence of 10,000 cells was detected by flow cytometry.

HeLa cells [5] = assay: Flow cytometry ROS (DCFH-DA) in HeLa cells; assay type: cell-based, human; details: for fluorescence intensity of ROS: 10 μM
Description: as §3

[6] = before the 48 h change (24 h induction)

T1 sequence (P11388 whole entry): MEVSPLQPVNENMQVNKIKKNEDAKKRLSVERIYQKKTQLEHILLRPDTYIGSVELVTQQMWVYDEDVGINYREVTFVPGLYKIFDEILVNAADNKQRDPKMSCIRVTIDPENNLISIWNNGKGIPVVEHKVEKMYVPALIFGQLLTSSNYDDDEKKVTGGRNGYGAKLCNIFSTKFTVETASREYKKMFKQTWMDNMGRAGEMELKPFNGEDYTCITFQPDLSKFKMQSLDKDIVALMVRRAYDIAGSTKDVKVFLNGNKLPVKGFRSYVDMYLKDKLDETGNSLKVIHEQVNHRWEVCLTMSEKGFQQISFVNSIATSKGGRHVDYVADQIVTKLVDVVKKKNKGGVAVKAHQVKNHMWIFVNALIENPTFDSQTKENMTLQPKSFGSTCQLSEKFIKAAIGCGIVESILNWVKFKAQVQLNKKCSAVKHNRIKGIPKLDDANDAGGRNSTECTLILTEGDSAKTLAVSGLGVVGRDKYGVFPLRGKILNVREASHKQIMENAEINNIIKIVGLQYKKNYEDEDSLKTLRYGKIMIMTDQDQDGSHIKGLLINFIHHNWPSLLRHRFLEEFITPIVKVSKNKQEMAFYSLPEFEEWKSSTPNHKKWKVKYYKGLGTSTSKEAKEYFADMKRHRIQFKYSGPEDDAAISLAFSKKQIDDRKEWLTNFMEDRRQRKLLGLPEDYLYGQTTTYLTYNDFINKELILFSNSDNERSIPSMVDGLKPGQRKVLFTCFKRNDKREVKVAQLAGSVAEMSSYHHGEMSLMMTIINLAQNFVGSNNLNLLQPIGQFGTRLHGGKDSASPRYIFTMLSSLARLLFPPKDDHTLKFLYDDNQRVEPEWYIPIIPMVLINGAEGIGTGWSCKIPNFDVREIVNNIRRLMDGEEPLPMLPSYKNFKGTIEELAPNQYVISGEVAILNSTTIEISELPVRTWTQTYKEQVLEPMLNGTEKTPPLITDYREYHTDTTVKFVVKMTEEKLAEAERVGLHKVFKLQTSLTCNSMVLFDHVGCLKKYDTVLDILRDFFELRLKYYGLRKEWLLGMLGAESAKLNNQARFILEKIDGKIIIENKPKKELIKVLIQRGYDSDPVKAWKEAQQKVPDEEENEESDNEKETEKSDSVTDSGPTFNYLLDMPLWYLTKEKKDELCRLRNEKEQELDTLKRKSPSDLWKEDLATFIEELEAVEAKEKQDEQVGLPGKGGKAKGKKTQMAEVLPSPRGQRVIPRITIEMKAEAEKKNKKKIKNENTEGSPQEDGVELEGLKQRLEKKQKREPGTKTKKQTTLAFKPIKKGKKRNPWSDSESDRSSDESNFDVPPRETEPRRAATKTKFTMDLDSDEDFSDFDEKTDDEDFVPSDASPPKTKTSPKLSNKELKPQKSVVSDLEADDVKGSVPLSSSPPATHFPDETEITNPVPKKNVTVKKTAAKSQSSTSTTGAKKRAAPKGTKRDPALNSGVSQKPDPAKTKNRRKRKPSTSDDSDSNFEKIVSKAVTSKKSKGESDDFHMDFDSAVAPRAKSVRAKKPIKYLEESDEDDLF

## COc1cc([C@@H]2c3cc4c(cc3[C@@H](Sc3nc[nH]n3)[C@H]3COC(=O)[C@H]23)OCO4)cc(OC)c1O [Compound 1′S, 4β-S-(1,3,4-trizole-2)-4-deoxy-4′-demethylepipodophyllotoxin]
HeLa cells [1]
  IC50 fold difference vs the corresponding C-NH compound (1N or 1′N): 16 times
  IC50: 0.32 ± 0.03 µM
BGC-823 cells
  IC50: 8.38 ± 0.53 µM
A549 cells
  IC50: 3.85 ± 0.38 µM
[2]
  IC50 at 48 h: 43.2 ± 1.66 µM
Topoisomerase II
  inhibition of catalytic activity of Topo II (kDNA decatenation): nearly inhibited
HeLa cells [3]; 0-48 h
  activation of ATM, ATR, caspase-8, 9 and 3: activation of all these proteins

## COc1cc([C@@H]2c3cc4c(cc3[C@@H](Sc3ccccn3)[C@H]3COC(=O)[C@H]23)OCO4)cc(OC)c1O [3′S, 4β-S-(pyridine-2)-4-deoxy-4′-demethyl-podophyllotoxin]
HeLa cells [1]
  IC50: 5.6 ± 0.39 µM
BGC-823 cells
  IC50: 10.3 ± 0.34 µM
A549 cells
  IC50: 3.85 ± 0.35 µM
Topoisomerase II
  inhibition of catalytic activity of Topo II (kDNA decatenation): nearly inhibited

## COc1cc([C@@H]2c3cc4c(cc3[C@@H](Nc3nc[nH]n3)[C@H]3COC(=O)[C@H]23)OCO4)cc(OC)c1OC [Compound 1N, 4β-NH-(1,2,4-trizole-3)-4-deoxy-podophyllotoxin]
HeLa cells [1]
  IC50: 3.85 ± 0.21 µM
BGC-823 cells
  IC50: 1.25 ± 0.13 µM
A549 cells
  IC50: 5.33 ± 0.52 µM
[2]
  IC50 at 48 h: 21.2 ± 2.16 µM
HeLa cells [4]
  G2/M phase arrest: did not induce the G2/M phase arrest
  percentage of G2/M phase cells: about 80%
  percentage of G2/M phase cells (maximum): 80-90%
HeLa cells [5]; 48 h induction, half (1S) or most (1N) of the cells
  fluorescence intensity of ROS: 10^4–10^5
HeLa cells [5]; [6]
  fluorescence intensity of ROS: 10^5–10^6
HeLa cells [3]
  apoptotic pathways activated (BimEL, caspase-9, -8, -3, PARP): only stimulated the mitochondrial apoptotic pathway

## COc1cc([C@@H]2c3cc4c(cc3[C@@H](Sc3nc[nH]n3)[C@H]3COC(=O)[C@H]23)OCO4)cc(OC)c1OC [Compound 1S, 4β-S-(1,3,4-trizole-2)-4-deoxy-podophyllotoxin]
HeLa cells [1]
  IC50 fold difference vs the corresponding C-NH compound (1N or 1′N): about 29 times
  IC50: 0.17 ± 0.02 µM
BGC-823 cells; BGC-823 cells
  IC50 fold difference vs Compound 1N: ~3 times
BGC-823 cells
  IC50: 0.34 ± 0.02 µM
A549 cells; A549 cells
  IC50 fold difference vs Compound 1N: ~6 times
[2]
  IC50 at 48 h: 56.1 ± 3.54 µM
HeLa cells [4]
  G2/M phase arrest: did not induce the G2/M phase arrest
  percentage of G2/M phase cells: about 80%
  percentage of G2/M phase cells (maximum): 80-90%
HeLa cells [5]; [6]
  fluorescence intensity of ROS: 10^5–10^6
HeLa cells [5]; 48 h
  amount of ROS (fluorescence intensity × count of cells) improved compared with Compound 1N: 4.8 times
HeLa cells [3]
  apoptotic pathways activated (BimEL, caspase-9, -8, -3, PARP): activated the mitochondrial and the death receptor apoptotic pathways
